Read-outs that look alike come from different tables or passages of the source.
What was measured:
[1] = target: T1, OCT2 (Homo sapiens, UniProt O15244); assay: Inhibition of OCT2-mediated oxaliplatin uptake in transfected MDCK-II cells (protein-free HBSS); conditions: for inhibition at 30 min, 5 μM / inhibition at 30 min, 50 μM / potency estimated from few doses at 30 min: human
T1 sequence (O15244 1-555): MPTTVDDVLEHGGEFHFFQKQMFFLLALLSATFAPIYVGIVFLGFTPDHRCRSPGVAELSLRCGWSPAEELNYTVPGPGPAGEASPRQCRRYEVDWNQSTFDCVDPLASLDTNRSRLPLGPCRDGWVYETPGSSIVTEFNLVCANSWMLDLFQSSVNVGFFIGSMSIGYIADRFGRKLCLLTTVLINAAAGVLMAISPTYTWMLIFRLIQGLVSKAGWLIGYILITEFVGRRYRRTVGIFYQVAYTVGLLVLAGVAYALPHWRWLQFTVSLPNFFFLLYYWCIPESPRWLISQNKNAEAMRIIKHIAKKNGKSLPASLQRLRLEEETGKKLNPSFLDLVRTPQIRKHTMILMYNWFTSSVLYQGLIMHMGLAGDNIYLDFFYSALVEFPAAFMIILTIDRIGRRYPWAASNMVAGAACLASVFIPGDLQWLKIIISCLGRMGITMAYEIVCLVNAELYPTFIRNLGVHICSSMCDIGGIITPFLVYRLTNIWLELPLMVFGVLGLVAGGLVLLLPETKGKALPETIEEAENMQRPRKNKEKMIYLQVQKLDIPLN
Description: Fully confluent MDCK cell monolayers were transfected with either cDNA plasmids encoding the human transporter to be tested or a GFP control. […] The cells were then washed with ice-cold PBS and lysed with 50:50 acetonitrile:H2O. Intracellular content of the substrate was quantified by LC/MS/MS or a MicroBeta radiometric plate reader.

[2] = cited from earlier work; for Plasma protein binding (%): published data
[3] = target: T1, OCT2; assay: Inhibition of OCT2-mediated metformin uptake in transfected MDCK-II cells
[4] = target: T2, OCT1 (Homo sapiens, UniProt O15245); assay: Inhibition of OCT1-mediated oxaliplatin transport in human serum or 4% BSA HBSS
T2 sequence (O15245 1-554): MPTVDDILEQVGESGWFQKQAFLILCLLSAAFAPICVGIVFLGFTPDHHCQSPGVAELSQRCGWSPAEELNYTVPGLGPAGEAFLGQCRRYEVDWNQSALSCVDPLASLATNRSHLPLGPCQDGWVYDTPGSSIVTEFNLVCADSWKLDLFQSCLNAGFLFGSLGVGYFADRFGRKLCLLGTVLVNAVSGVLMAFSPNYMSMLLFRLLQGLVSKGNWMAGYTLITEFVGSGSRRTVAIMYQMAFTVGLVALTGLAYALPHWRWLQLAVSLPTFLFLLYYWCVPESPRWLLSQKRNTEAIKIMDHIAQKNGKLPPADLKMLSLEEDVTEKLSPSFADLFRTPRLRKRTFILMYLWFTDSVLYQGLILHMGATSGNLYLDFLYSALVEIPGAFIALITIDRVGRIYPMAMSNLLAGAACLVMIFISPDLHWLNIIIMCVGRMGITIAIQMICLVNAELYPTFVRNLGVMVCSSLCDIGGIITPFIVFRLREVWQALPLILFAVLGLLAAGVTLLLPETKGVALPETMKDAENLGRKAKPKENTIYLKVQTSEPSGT

[5] = target: T3, OCT3 (Homo sapiens, UniProt O75751); assay: Inhibition of OCT3-mediated oxaliplatin transport in human serum or 4% BSA HBSS
T3 sequence (O75751 1-556): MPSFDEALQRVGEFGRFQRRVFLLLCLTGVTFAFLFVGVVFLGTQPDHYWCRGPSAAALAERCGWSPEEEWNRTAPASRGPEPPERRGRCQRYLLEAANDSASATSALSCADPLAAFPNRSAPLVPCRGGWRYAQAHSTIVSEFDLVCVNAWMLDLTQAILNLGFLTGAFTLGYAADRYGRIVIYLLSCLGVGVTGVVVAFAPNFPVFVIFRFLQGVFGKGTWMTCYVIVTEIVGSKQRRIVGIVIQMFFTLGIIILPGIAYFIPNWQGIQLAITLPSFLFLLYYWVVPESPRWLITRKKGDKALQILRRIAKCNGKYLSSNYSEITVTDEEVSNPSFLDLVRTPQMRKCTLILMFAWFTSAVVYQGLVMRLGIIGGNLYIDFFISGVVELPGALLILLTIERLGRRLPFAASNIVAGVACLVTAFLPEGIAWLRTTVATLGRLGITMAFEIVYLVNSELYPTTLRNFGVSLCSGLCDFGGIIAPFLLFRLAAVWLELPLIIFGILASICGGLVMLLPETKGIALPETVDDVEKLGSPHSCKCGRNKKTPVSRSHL

[6] = target: T1, OCT2; assay: Cmax,u/IC50 or Cmax/IC50,app ratio for clinically relevant inhibition of OCT2-mediated oxaliplatin uptake; design: expressed in transfected cells; host or cells: MDCK-II (Madin-Darby canine kidney type II)
Description: The FDA has published guidance in predicting if a drug is likely to be a transporter inhibitor in clinics by using data attained in in vitro models. Cmax,u denotes the maximum free, unbound plasma concentration of a drug. […] Thus, characteristics of the in vitro model may be used to predict in vivo effectiveness.

[7] = target: T1, OCT2; assay: Inhibition of OCT2-mediated oxaliplatin transport in 100% human serum or HBSS containing 4% BSA (IC50,app); conditions: for fold higher potency for OCT2 over OCT1, OCT3, MATE1 and MATE2K in transporting oxaliplatin: from IC50,app of Table 4
[8] = target: T1, OCT2; assay: Inhibition of OCT2-mediated ASP+ uptake (Kido et al., Giacomini group); conditions: human, cell line expressing human OCT2 (cell line not given), probe ASP+ 5 μM
[9] = MDCK-II cells transfected with human OCT2, probe oxaliplatin 10 μM
[10] = read-out: Plasma peak total concentration Cmax, published clinical pharmacokinetic data
[11] = IC50,app (μM), apparent inhibition constant in 100% human serum or HBSS containing 4% BSA, OCT2-mediated oxaliplatin uptake
[12] = OCT2 IC50, app (μM), 100% human serum or HBSS containing 4% BSA, 20 μM or 100 μM oxaliplatin
[13] = 600 mg dosed IV bolus (FIG. 1B)

| Structure (SMILES) | IC50 [1] [µM] | Plasma protein binding (%) [2] [%] | Cmax [2, 10] [µM] | IC50 [3] [µM] | IC50 [4] [µM] | IC50 [5] [µM] | IC50 [7, 11] [µM] | IC50 [7, 12] [µM] | inhibition at 30 min, 5 μM [1] [%] | inhibition at 30 min, 50 μM [1] [%] | potency estimated from few doses [8] [µM] | fold higher potency for OCT2 over OCT1, OCT3, MATE1 and MATE2K in transporting oxaliplatin [7] | other results |
| --- | --- | --- | --- | --- | --- | --- | --- | --- | --- | --- | --- | --- | --- |
| C[C@@H]1CCO[C@H]2Cn3cc(C(=O)NCc4ccc(F)cc4F)c(=O)c(O)c3C(=O)N12 [Dolutegravir] | 0.2 | 99.5 | 10.9 | 0.54 ± 0.09 | > 100 | > 100 | 3.37 | 3.4 ± 1 |  |  |  |  | inhibition at 30 min, 5 μM [1, 9]: 83%; inhibition at 30 min, 50 μM [1, 9]: 97%; potency estimated from few doses at 30 min [1, 9]: 0.2 µM; Mean Cmax ([2]; 50 mg po qd, day 10): 6160 ng/mL; Mean T1/2 ([2]; 50 mg po qd, day 10): ~15 h; Mean Cmax ([2]; 50 mg po qd, single dose): 4560 ng/mL; Mean T1/2 ([2]; 50 mg po qd, single dose): 14.2 h; Cmax ([2]; read-out: Mean Cmax, 50 mg po qd, day 10): 14.7 µM; Cmax ([2]; read-out: Mean Cmax, 50 mg po qd, single dose): 10.9 µM; Cmax/IC50, app ratio ([6]; 50 mg po qd, day 10): 4.36; Cmax/IC50, app ratio ([6]; 50 mg po qd, single dose): 3.23 |
| Clc1ccc(COC(Cn2ccnc2)c2ccc(Cl)cc2Cl)c(Cl)c1 (centres unmarked) [Miconazole] | 1.55 | 92 | 14.9 | 142 | 8.4 ± 1.5 | 49.2 ± 22.6 | 3.3 | 3.3 ± 0.6 | 39 | 97 | 2 | at least 2 fold | potency estimated from few doses at 30 min ([1]; IC50 (μM) (substrate Oxaliplatin)): 1.55 µM; decrease of plasma concentration at 3 hour [2, 13]: nearly five-fold decrease at 3 hour; plasma half-time (initial phase) [2, 13]: 0.4 h; Mean Cmax ([2]; 800 mg IV): 5000 ng/mL; Mean T1/2 (hour), distribution phase ([2]; 800 mg IV): 0.4 (dis- hour; Mean T1/2 (hour), terminal phase ([2]; 800 mg IV): phase), 8.9 hour; Cmax ([2]; read-out: Mean Cmax, 800 mg IV): 12 µM; fold less potent in inhibiting OCT2-mediated metformin transport than ASP+ and oxaliplatin transport ([3]; comparison of Table 1 potencies): approximately 70 fold; Cmax/IC50, app ratio ([6]; 800 mg IV): 3.64 |
| COc1cc(OC)c(C(=O)CCCN2CCCC2)c(OC)c1 [Buflomedil, 4-pyrrolidin-1-yl-1-(2,4,6-trimethoxyphenyl)butan-1-one] | 0.78 | 70 | 6.8 | 5.7 ± 0.8 | 34.6 ± 7.6 | 28 ± 11.4 | 1.45 | 1.4 ± 0.2 | 87 | 105 | < 0.1 | at least 20 fold | Mean Cmax ([2]; 300 mg po, bid): 2100 ng/mL; Mean T1/2 ([2]; 300 mg po, bid): 3.4 h; Mean Cmax ([2]; 600 mg slow-release, po, qd): 2200 ng/mL; Mean T1/2 ([2]; 600 mg slow-release, po, qd): >10 h; average clearance ([2]; Group A patients): 292 mL/min; average clearance ([2]; Group B patients, seniors (average age 82 yrs) with impaired renal clearance): 99.5 mL/min; Cmax ([2]; read-out: Mean Cmax, 300 mg po, bid): 6.8 µM; Cmax ([2]; read-out: Mean Cmax, 600 mg slow-release, po, qd): 7.2 µM; Cmax/IC50, app ratio ([6]; 300 mg po, bid): 4.69; Cmax/IC50, app ratio ([6]; 600 mg slow-release, po, qd): 4.97 |
